Experimental data: PMC12639566, “Identification of antimalarial drugs and bradykinin as ligands of the Plasmodium membrane protein PfSR10” (iScience, 2025)
Peptide text beside a SMILES is read from it.

Legend:
PfSR10 [1] = target: T1, PfSR10 (Plasmodium falciparum, UniProt Q8I5P8); assay: FlAsH-BRET assay of PfSR10 extracellular conformational changes; format: cell-based; details: for ECL3 movement relative to the PfSR10 N-terminus, S6 sensor: S6 (site 6) sensor site; for ECL1 movement relative to the PfSR10 N-terminus: concentration-dependent
Protocol: To characterize the binding properties of different ligands (CQ, DHA, PIP-TT, PQ, bradykinin or des-Arg9-bradykinin) to PfSR10, a FlAsH BRET assay was performed as previously described.[29]^,[32]^,[49] We seeded HEK293 cells or COS-7 cells in 6-well plate were transfected with PfSR10 FlAsH BRET sensors (S1 to S6 as indicated in Figure 4B) and incubated for 48 h at 37°C in 5% CO2. The overexpressed PfSR10 sensors cells were washed with FlAsH BRET buffer (25 mM HEPES, 1 mM CaCl2, 140 mM NaCl, 2.7 mM KCl, 0.9 mM MgCl2, 0.37 mM NaH2PO4, 5.5 mM D-glucose, 12 mM NaHCO3) and incubated with 2.5 μM FlLAsH EDT2 (pre-diluted in FLAsH BRET buffer) for 40min at 37°C in 5% CO2. The cells were washed twice, resuspended with FlAsH BRET buffer, and seeded into a 96-well plate at a density of 5x10^4 per well. After adding increasing concentrations of ligand (CQ, DHA, PIP-TT, PQ, bradykinin or des-Arg9-bradykinin) together with luciferase substrate coelenterazine-h (5 μM), the BRET signals between Nluc (440-480 nm) and FlAsH fluorescent moiety (525-585 nm) emissions were examined by a Mithras LB 940 Multimode Microplate Reader.

PfSR10 [2] = target: T1, PfSR10; assay: Gi1-Gγ dissociation BRET assay in PfSR10-overexpressing HEK293 cells; format: cell-based; details: for Gi1 coupling with PfSR10 (in words): G protein dissociation assay
Excerpt: (§1) To characterize the G protein signalling properties of PfSR10, G protein BRET probes were generated according to previous publication.[50] The Gqo BRET probes were generated by replacing the six amino acids of the C- terminus of Gq -RlucII with those from GoA1, creating a chimeric Gqo-RlucII subunit.[51] HEK293 cells or COS-7 cells were co-transfected with PfSR10 and various G protein probes (Gi, Gq and Gqo). Forty-eight hours post-transfection, cells were washed twice with HBSS, resuspended with HBSS buffer, and seeded into a 96-well plate at a density of 5x10^4 per well. After adding increasing concentrations of ligand (CQ, DHA, PIP-TT, PQ, Bradykinin, des-Arg9-bradykinin, bradykinin-Arg-FITC, FITC-bradykinin) together with luciferase substrate coelenterazine 400a (5 μM, Cayman), the BRET signals between […] (440-480 nm) and GFP2 (510 nm) emissions were examined by a Mithras LB 940 Multimode Microplate Reader (Berthold Technologies). The BRET signal was calculated as the ratio of the GFP2 emission to Nluc emission.

PySR10 = PySR10 (Plasmodium yoelii, UniProt V7PQD6); assay: Gi dissociation assay in HEK293 cells overexpressing PySR10; format: cell-based; details: read-out: Gi activity EC50 downstream of PySR10
PcSR10 = PcSR10 (Plasmodium chabaudi, UniProt A0A4V0KCI5); assay: Gi dissociation assay in HEK293 cells overexpressing PcSR10; format: cell-based; details: read-out: Gi activity EC50 downstream of PcSR10
PfSR10 [3] = target: T1, PfSR10; assay: GloSensor-cAMP assay, inhibition of forskolin-induced cAMP in PfSR10-overexpressing HEK293 cells; format: cell-based
Protocol: To examine the constitutive activity of PfSR10, we transfected HEK293 cells with different concentrations of the receptor, including PfSR10, ADGRG2, ADGRG3. For measuring the anti-malarial drugs, bradykinin or des-Arg9-bradykinin-induced inhibition of forskolin-stimulated cAMP level in HEK293 cells or COS-7 cells, the receptor encoding plasmid (PfSR10 or its mutants) or empty plasmid (pcDNA3.1) was co-transfected with the GloSensor plasmid and incubated in an incubator at 37°C with 5% CO2 for 24 h. The transfected cells were then inoculated on 96-well plates (at a density of 4 × 10^4 / well) and incubated in incubators under the same conditions for another 24 hours. Cells were precultured with serum-free medium (Gibco) containing 5% DILUTED GloSensor™cAMP reagent Reserve solution (Progema) for 2 h. The base cAMP signal was directly measured using a multimode tablet reader (PerkinElmer Envision). At the same time, the cAMP signal induced by DHA, PIP-TT, PQ, CQ bradykinin or des-Arg9-bradykinin was detected after adding agonists into the corresponding Wells. Finally, the s-shaped dose response function in GraphPad Prism 7.0 was used to analyze the data.

PfSR10 [4] = target: T1, PfSR10; assay: Gq-Gγ dissociation BRET assay in PfSR10-overexpressing HEK293 cells; format: cell-based
Excerpt: as §1

[5] = target: PcSR10 (SR10 of Plasmodium chabaudi) (Plasmodium chabaudi)
[6] = target: PySR10 (SR10 of Plasmodium yoelii) (Plasmodium yoelii)
[7] = HEK293 cells overexpressing PfSR10, mean ± SEM

T1 sequence (Q8I5P8 entry or part of it): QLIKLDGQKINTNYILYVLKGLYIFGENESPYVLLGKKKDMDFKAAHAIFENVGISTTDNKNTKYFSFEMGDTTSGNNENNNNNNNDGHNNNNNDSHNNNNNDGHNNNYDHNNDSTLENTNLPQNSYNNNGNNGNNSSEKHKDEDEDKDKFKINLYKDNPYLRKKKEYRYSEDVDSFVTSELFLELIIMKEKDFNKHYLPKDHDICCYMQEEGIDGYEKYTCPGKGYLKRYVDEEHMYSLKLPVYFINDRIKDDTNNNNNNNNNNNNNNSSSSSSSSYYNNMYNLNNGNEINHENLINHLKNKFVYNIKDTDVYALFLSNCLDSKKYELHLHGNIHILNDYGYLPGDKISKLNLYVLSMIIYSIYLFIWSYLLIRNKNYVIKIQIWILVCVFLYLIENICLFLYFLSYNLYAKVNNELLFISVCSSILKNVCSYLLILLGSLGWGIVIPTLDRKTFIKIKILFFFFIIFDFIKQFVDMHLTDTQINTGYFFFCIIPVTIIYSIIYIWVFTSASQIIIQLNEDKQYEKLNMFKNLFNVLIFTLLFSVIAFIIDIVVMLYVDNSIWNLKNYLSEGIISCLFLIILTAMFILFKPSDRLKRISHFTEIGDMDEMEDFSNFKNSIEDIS
PySR10, sequence (V7PQD6 entry or part of it): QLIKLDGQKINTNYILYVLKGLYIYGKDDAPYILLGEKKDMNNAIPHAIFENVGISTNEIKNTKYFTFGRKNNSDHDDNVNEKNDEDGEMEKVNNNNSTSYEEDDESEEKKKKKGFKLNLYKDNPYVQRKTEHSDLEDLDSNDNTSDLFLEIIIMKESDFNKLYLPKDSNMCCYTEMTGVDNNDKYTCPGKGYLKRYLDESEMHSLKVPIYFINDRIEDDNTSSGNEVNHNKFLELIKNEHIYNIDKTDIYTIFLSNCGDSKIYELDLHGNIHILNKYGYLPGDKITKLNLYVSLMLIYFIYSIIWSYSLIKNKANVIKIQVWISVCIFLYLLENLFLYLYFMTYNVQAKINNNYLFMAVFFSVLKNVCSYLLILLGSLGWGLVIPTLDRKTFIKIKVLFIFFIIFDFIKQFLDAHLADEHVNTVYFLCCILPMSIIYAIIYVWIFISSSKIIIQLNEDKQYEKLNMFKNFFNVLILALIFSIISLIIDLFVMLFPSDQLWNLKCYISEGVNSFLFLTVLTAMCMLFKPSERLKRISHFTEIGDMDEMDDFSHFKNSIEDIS
PcSR10, sequence (A0A4V0KCI5 entry or part of it): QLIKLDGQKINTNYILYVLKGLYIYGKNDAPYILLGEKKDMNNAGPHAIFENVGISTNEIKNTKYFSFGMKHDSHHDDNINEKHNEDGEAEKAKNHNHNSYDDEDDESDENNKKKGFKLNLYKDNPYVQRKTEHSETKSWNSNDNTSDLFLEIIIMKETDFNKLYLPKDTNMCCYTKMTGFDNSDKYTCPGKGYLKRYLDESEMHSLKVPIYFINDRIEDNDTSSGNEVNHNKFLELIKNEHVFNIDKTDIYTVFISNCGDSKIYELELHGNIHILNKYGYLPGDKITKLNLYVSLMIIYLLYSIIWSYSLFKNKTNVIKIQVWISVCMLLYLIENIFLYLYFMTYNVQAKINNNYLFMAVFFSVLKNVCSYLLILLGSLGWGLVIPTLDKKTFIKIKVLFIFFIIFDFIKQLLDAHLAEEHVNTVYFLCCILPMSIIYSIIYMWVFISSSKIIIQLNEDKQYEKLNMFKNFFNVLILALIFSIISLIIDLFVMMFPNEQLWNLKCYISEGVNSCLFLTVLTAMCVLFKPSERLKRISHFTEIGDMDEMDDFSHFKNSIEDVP

| Molecule | EC50 (PfSR10 [2]) [nM] | EC50 (PfSR10 [3]) [nM] | Gi1 coupling with PfSR10 (in words) (PfSR10 [2]) | ECL3 movement relative to the PfSR10 N-terminus, S6 sensor (PfSR10 [1]) | ECL1 movement relative to the PfSR10 N-terminus (PfSR10 [1]) | cAMP inhibition Emax (PfSR10 [3]; [7]) | other results |
| --- | --- | --- | --- | --- | --- | --- | --- |
| O=C1C(O)=C([C@H]2CC[C@H](c3ccc(Cl)cc3)CC2)C(=O)c2ccccc21 [ATO, atovaquone] |  |  |  |  |  |  | extracellular conformational changes in PfSR10 (PfSR10 [1]): did not induce detectable extracellular conformational changes |
| NC(N)=NCCC[C@H](NC(=O)[C@H](Cc1ccccc1)NC(=O)[C@@H]1CCCN1C(=O)[C@H](CO)NC(=O)[C@H](Cc1ccccc1)NC(=O)CNC(=O)[C@@H]1CCCN1C(=O)[C@@H]1CCCN1C(=O)[C@@H](N)CCCN=C(N)N)C(=O)O [bradykinin] (H-RPPGFSPFR-OH) | 0.38 ± 0.11 | 1.82 ± 0.83 |  |  |  |  | EC50 (PySR10): 0.67 ± 0.29 nM; EC50 (PcSR10): 0.15 ± 0.005 nM; EC50 (PfSR10 [4]): 0.53 ± 0.06 nM |
| CCN(CC)CCCC(C)Nc1ccnc2cc(Cl)ccc12 (stereo not drawn) [CQ, chloroquine] | 0.75 ± 0.06 | 36.6 ± 2.97 | promoted Gi1 coupling with PfSR10 | separation of ECL3 from the PfSR10 N-terminus | inward movement of ECL1 toward the PfSR10 N-terminus | 0.958 ± 0.03 × 10^3 |  |
| Clc1ccc2c(N3CCN(CCCN4CCN(c5ccnc6cc(Cl)ccc56)CC4)CC3)ccnc2c1.O=P(O)(O)O [PIP-TT, piperaquine-tetraphosphate-tetrahydrate] |  |  | promoted Gi1 coupling with PfSR10 | separation of ECL3 from the PfSR10 N-terminus | inward movement of ECL1 toward the PfSR10 N-terminus | 1.070 ± 0.09 × 10^3 | Gi1-dissociation Emax (PfSR10 [2]; [7]): -13.00 ± 1.00 × 10^-3; EC50 (PfSR10 [2]; HEK293 cells overexpressing PfSR10, mean ± SEM, read-out: Gi1-dissociation EC50): 9.18 ± 5.23 nM; EC50 (PfSR10 [3]; inhibition of Fsk-induced cAMP elevation, HEK293 cells overexpressing PfSR10, mean ± SEM, n=3, read-out: cAMP inhibition EC50): 0.4 ± 0.12 nM |
| RPPGFSPFR [bradykinin] |  |  |  |  |  |  | EC50 of Gi activity downstream of PcSR10, concentration-dependent [5]: 0.15 nM; EC50 of Gi activity downstream of PySR10, concentration-dependent [6]: 0.67 nM |
